Results reported in US6872750B2, “Modulating angiogenesis” (Regents of the University of California, priority 2000, dated 2005).

Assays:
Kuz = assay: Inhibition of angiogenesis by Kuz inhibitors in several model systems
Procedure: The presence of Kuz and its activity is assayed by ELISA and Kuz-specific protease activity prior to or subsequent to the measure of angiogenesis.

HUVEC = HUVEC formation of vascular-like structures on Matrigel; assay type: cell-based, human; conditions: HUVEC on growth factor-reduced Matrigel, 8-12 h
Procedure: The formation of vascular-like structures by HUVEC is assessed on the basement membrane matrix preparation, growth factor-reduced Matrigel (Becton Dickinson, Bedford, Mass.), as described in Kureishi Y, et al. Nat Med 2000 September;6(9):1004-10. Two-well chamber slides are coated with Matrigel (10 mg/ml) according to the manufacturer's instructions. HUVEC are seeded on coated plates at 4-5×10^4 cells/well in EBM and incubated at 37° C. for 60 minutes. The media are supplemented with the agents (metalloprotease domain of human Kuz, Kuz inhibitors, Kuz antibodies, VEGF, etc.) and incubated at 37° C. for 8-12 h. Tube formation image is observed using an inverted phase contrast microscope (Nikon Diaphot). Images are captured with a video graphic system (DEI-750 CE Digital Output Camera, Optronics, Goleta, Calif.). The degree of tube formation is quantified by measuring the length of tubes in random fields from each well using the National Institutes of Health (NIH) Image Program.

Molecule: CNC(=O)[C@H](Cc1c[nH]c2ccccc12)NC(=O)[C@@H](CC(=O)NO)CC(C)C [GM6001, NHOHCOCH2CH(1-Bu)CO-Trp-NHMe]
- inhibition of angiogenesis (Kuz): inhibit angiogenesis

Molecule: TIMP-1: natural MMP inhibitor, tissue inhibitor of MMPs
- inhibition of angiogenesis (Kuz): inhibit angiogenesis

Molecule: VEGF
- formation of capillary-like tubes (HUVEC): promotes the formation of capillary-like tubes

Molecule: CC(C)CC(CC(=O)NO)C(=O)N[C@@H](C)C(=O)NCCN (stereo partly drawn) [IC-3, N-{D,L-[2-(hydroxyaminocarbonyl)methyl]-4-methyl-pentanoyl}-L-alanine, 2-aminoethyl amide]
- inhibition of angiogenesis (Kuz): inhibit angiogenesis
